Data as given in patent publication US20260007621A1, “Pharmaceutical Combinations for Treatment” (priority 2022, published 2026).
“Also recorded” adds a separate entry of the source.

How the values were obtained:
[1] = system: therapeutic relief of cough, cold and allergy symptoms; assay: Inventor's findings on relief from GFN or antihistamines combined with IBF+APAP (and PE); no method given; assay type: in vivo, human; settings: for therapeutic relief expressed as GFN amount: 'it is suggested'
Procedure: A normal 4 hourly dosage of DM and GFN is 20 mg and 400 mg respectively.

[2] = 6.25 mg PE administered with 500 mg APAP; cited from earlier work
[3] = in vivo; cited from earlier work
[4] = system: recurring coughs, sneezing, headache, runny nose, pain, cold, fever, sore throat, sinus pressure; assay: Clinical study: one subject rates relief from new pharmaceutical combinations against previous medication; assay type: in vivo, human; settings: 2.5 mg cetirizine, 5 mg bilastine, 2.5 mg loratadine or 30 mg fexofenadine, each dose after 3 hours; versus 10, 20, 10 or 120 mg once
Procedure: The subject had recurring coughs, sneezing, headache, runny nose, pain, cold, fever, sore throat, sinus pressure etc. They took medication including DM+GFN combination as well as antihistamines to cure it, namely: • a. Mucinex Expectorant Tablets (600 mg GFN/dose): 1 dose per 12 hours; • b. […] Labixten (20 mg Bilastine/dose): 1 dose per 24 hours. […] On each recurrence of cough and other symptoms a new pharmaceutical combination was given. The subject would then provide feedback on the improvement of their symptoms and rate the performance of the pharmaceutical composition in comparison to their previous medication experience.

COc1ccccc1OCC(O)CO (stereo not shown) [GFN, guaifenesin]
therapeutic relief expressed as GFN amount ([1]; 100 mg GFN taken with 175-200 mg IBF and 275-575 mg APAP): 143 mg GFN
therapeutic relief expressed as GFN amount ([1]; 200 mg GFN taken with 175-200 mg IBF and 275-575 mg APAP): 286 mg GFN
increase in effectiveness of GFN when combined with IBF+APAP ([1]; in vivo): about 45%
GFN dose that, combined with IBF+APAP, gives the relief of a normal 4 hourly dosage of 20 mg DM and 400 mg GFN ([1]; without DM): 280 mg

CNC[C@H](O)c1cccc(O)c1 [PE, Phenylephrine]
PE dosage of similar effect [2]: ~10 mg
effectiveness compared with PSE [3]: not as effective as PSE

CCOCCn1c(C2CCN(CCc3ccc(C(C)(C)C(=O)O)cc3)CC2)nc2ccccc21 [bilastine]
quarter dose administered 4 times daily versus normal full 24-hour dose of the same ingredient at once [4]: better effect; also recorded: performed therapeutically better

O=C(O)COCCN1CCN(C(c2ccccc2)c2ccc(Cl)cc2)CC1 (stereo not shown) [cetirizine]
quarter dose administered 4 times daily versus normal full 24-hour dose of the same ingredient at once [4]: better effect; also recorded: performed therapeutically better

CC(C)(C(=O)O)c1ccc(C(O)CCCN2CCC(C(O)(c3ccccc3)c3ccccc3)CC2)cc1 (stereo not shown) [fexofenadine]
quarter dose administered 4 times daily versus normal full 24-hour dose of the same ingredient at once [4]: better effect; also recorded: performed therapeutically better

CCOC(=O)N1CCC(=C2c3ccc(Cl)cc3CCc3cccnc32)CC1 [loratadine]
quarter dose administered 4 times daily versus normal full 24-hour dose of the same ingredient at once [4]: better effect; also recorded: performed therapeutically better
